Measured values as given in patent US8815210B2, “Diagnostic composition comprising plasma cations having superior safety profile” (GE Healthcare AS, priority 2009, dated 2014).

Key:
Sca:SD rats = settings: rat, in vivo
Procedure: Young adult male Sca:SD rats (Scanbur, Sweden), weighing 200±20 g, were injected intravenously at a rate of 1.2 ml/min with either Compound I (340 mgI/mL, 286 mosmol/kg), iodixanol (321 mgI/mL, 284 mosmol/kg), osmotic control mannitol (283 mosmol/kg), or saline (290 mosmol/kg), administered as 2 separate doses 4 hours apart. For the interim kill animals (day 2 post-treatment), Compound I and iodixanol were dosed at 8, 10 and 12.8 gI/kg, corresponding to total dose volumes of 23.7, 29.7 and 38.0 ml/kg, and 25, 31.3 and 40 ml/kg, respectively, whereas for mannitol and saline, the dose volume was 40 ml/kg. For the 7 day terminal kill animals, there were 4 dose groups; Compound I and iodixanol (12.8 gI/kg), and saline and mannitol (40 mL/kg). In all cases, each group included 8 animals.
The following evaluations were made during the study; clinical signs, body weights and blood for haematology and clinical chemistry on days 0, 2 and 7, and gross observations, organ weight and histomorphological examination of tissues from the animals killed by excess intravenous thiopental injection on days 2 or 7. The day of dosing was defined as Day 0. Clinical biochemistry parameters (Na, K, Cl, PO4, Ca, AST, ALT, ALP, cholesterol, creatinine, CK, GGT, TG (triglyceride), total bilirubin, total protein, urea, albumin, LDH and GLDH were measured on a Beckman Synchron CX5 at 37° C. Haematology parameters (WBC, differential WBC, RBC, WBC/RBC ratio, Hgb, PLT, HCT, MCH, MCHC, MCV, MPV and RDW) were analyzed with an Abbott Cell-Dyn 3500 CS automated haematology analyzer. Kidneys from saline control and the 12.8 gI/kg Compound I and iodixanol groups were immerse fixed in 10% neutral buffered formalin, processed into paraffin wax, sectioned at a nominal thickness of 5 μm, stained with haematoxylin and eosin and examined by light microscopy.
The data were analysed by parametric one-way ANOVA, followed by Dunnett's post procedure test, using the 2 days and 7 days saline groups for comparison with the 2 days and 7 days iodixanol and Compound I groups. The statistical analysis was applied on day −1 (baseline), day 2 and day 7.

normal pigs = experiment: Haemodynamic effects after fast LAD injection in normal pigs (Example 2c); assay type: in vivo, pig; settings: 40 ml at 5 ml/sec into LAD; Compound I in composition with 45 mM NaCl and 0.5 mM CaCl2
Procedure: FIG. 6 a) and b) depicts the effect on cardiovascular parameters following injection of 40 ml (5 ml/sec) of Ringer Lactate, Compound I, Visipaque or Iopamidol to the LAD of normal pigs.
In a further study the haemodynamic effects of Compound I in a composition with 45 mM NaCl and 0.5 mM CaCl2 was compared to Visipaque and Iopamidol following selective administration to the LAD of normal pigs with a fast injection rate (5 ml/sec). Ringer Lactate was also studied as a volume and electrolyte “ratio” control. In total 3 pigs were studied, and each CM was administered twice to each pig in random order. The injection rate used was 5 ml/sec with a total injection volume of 40 ml.

[1] = Osmolality, vapour pressure osmometer; assay type: physicochemical; settings: 320 mgI/ml
Procedure: The osmolality of Compound I was determined at four different concentrations, 204, 254, 310 and 324 mgI/ml. The osmolality of Compound I at 320 mgI/ml is 136 mOsm/kg.
The osmolality of Compound I was determined at four different concentrations, 204, 254, 310 and 324 mgI/ml. A Vapro 5520 vapour pressure osmometer from Vapro Inc. was used.
The osmolality of Compound I at 320 mgI/ml is lower than that of iodixanol, 136 mOsm/kg vs 210 mOsm/kg at 320 mgI/ml.

[2] = test system: human serum albumin (HSA); experiment: Binding to human serum albumin, equilibrium dialysis; assay type: in vitro ADME; settings: 25 hours, citrated human plasma
Procedure: The binding of Compound I to human serum albumin (HSA) was determined using an equilibrium dialysis method. The binding of Compound I to human serum albumin was determined to be very low, 3.1±1.3%, confirming the negligible interaction of the substance with endogenous proteins.
The binding of Compound I to human serum albumin (HSA) was determined using an equilibrium dialysis method. A stock solution of Compound I (5.0 mg/ml in phosphate buffered saline (PBS)) was mixed with citrate:human plasma in a ratio of 1:9. Equilibration was carried out in a Diachem Dianorm Dialyser against an aqueous phosphate buffered saline using a Diachem 10.17 MW cutoff 10000 membrane and was carried out for 25 hours. Analysis of the solutions was performed using an ICP-AES instrument. In addition, spiked PBS solutions were also equilibrated against citrated human plasma solutions to ensure that the equilibrium had been obtained. The binding of Compound I to human serum albumin was determined to be very low, 3.1±1.3%, confirming the negligible interaction of the substance with endogenous proteins. As a reference, the binding of iodixanol to HSA was determined to 0.4±0.9%.

O=CN(CC(O)CN(C=O)c1c(I)c(C(=O)NCC(O)CO)c(I)c(C(=O)NCC(O)CO)c1I)c1c(I)c(C(=O)NCC(O)CO)c(I)c(C(=O)NCC(O)CO)c1I (stereo not shown) [Compound I, 5-[formyl-[3-[formyl-[3,5-bis(2,3-dihydroxypropylcarbamoyl)-2,4,6-triiodophenyl]amino]-2-hydroxypropyl]amino]-N,N′-bis(2,3-dihydroxypropyl)-2,4,6-triiodobenzene-1,3-dicarboxamide]
Proximal Tubule Vacuolation, Left Kidney (Sca:SD rats; male, Sca:SD, 2 day): 3, 3, 3, 3
duration of clinical signs (Sca:SD rats; male, Sca:SD, iv): 2 to 3 h
onset of clinical signs after the first administration (Sca:SD rats; male, Sca:SD, iv): 10 to 20 min
adverse clinical signs (Sca:SD rats; iv): mild to moderate depression and uncoordinated movements and weakness/inactivity
increase in LVSP from baseline (normal pigs): ~5%
osmolality [1]: 136 mOsm/kg
binding to human serum albumin (HSA) [2]: 3.1±1.3%
